Test results reported in publication PMC4627800, “Allelic Variation of Cytochrome P450s Drives Resistance to Bednet Insecticides in a Major Malaria Vector” (PLoS Genetics, 2015).
Read-outs that look alike come from different tables or passages of the source. Marks after values point to notes of the source that are not given here.

Tests used:
UGANCYP6P9b = UGANCYP6P9b (Anopheles funestus, UniProt A0A0S1S7Y0); experiment: Pyrethroid depletion (metabolism) assay with recombinant enzyme; assay type: biochemical; conditions: 20μM insecticide, 1 hour, vs -NADPH
MALCYP6P9b = MALCYP6P9b (Anopheles funestus, UniProt B5AII7); experiment: as above; assay type: biochemical; conditions: 20μM insecticide, 1 hour, vs -NADPH
Experimental: (§7) Membrane expressing recombinant CYP6P9a/-b and AgCPR, and reconstituted cytochrome b5 were added to the side of the tube and pre-incubated for 5 minutes at 30°C, with shaking at 1,200 rpm to activate the membrane. 20μM of test insecticide was then added into the final volume of 0.2ml (~2.5% v/v methanol), and reaction started by vortexing at 1,200 rpm and 30°C for 1 hour. Reactions were quenched with 0.1ml ice-cold methanol and incubated for 5 more minutes. Tubes were then centrifuged at 16,000 rpm and 4°C for 15 minutes, and 150μl of supernatant transferred into HPLC vials for analysis. Reactions were carried out in triplicates with experimental samples (+NADPH) and negative controls (-NADPH). 100μl of sample was loaded onto an isocratic mobile phase (90:10 v/v methanol to water) with a flow rate of 1ml/min, monitoring wavelength of 226nm and peaks separated with a 250mm C18 column (Acclaim 120, Dionex) on Agilent 1260 Infinity at 23°C. Enzyme activity was calculated as percentage depletion (the difference in the amount of insecticide(s) remaining in the +NADPH tubes compared with the–NADPH) and a t-test used for statistical analysis.

Asp^335Glu_CYP6P9b = Asp^335Glu_CYP6P9b (Anopheles funestus, UniProt B5AII7, D335E); experiment: Kinetics of permethrin metabolism by CYP6P9b mutants; assay type: biochemical
Experimental: (§1) Reactions were performed in triplicates both for +NADPH (experimental tubes) and–NADPH (negative control). K m and V max were established from the plot of substrate concentrations against the initial velocities and fitting of the data to the Michaelis-Menten module using the least squares non-linear regression, as described in the GraphPad Prism 6.03 Software (GraphPad Inc., La Jolla, CA, USA).
(§2) In addition, fluorescent probes were also screened to establish differences in the O-dealkylation activity of the mutants compared with the wild type enzyme. All in vitro and kinetic analyses were conducted as described above. However, as different mutants expressed with varying concentrations all assays were conducted within linear range, with the amount of enzyme and time which produced highest activities.

Pro^401Ala_CYP6P9b = Pro^401Ala_CYP6P9b (Anopheles funestus, UniProt B5AII7, P401A); experiment: as above; assay type: biochemical
Experimental: as §1, §2

Asn^384Ser_CYP6P9b = Asn^384Ser_CYP6P9b (Anopheles funestus, UniProt B5AII7, N384S); experiment: as above; assay type: biochemical
Experimental: as §1, §2

Val^109Ile_CYP6P9b = Val^109Ile_CYP6P9b (Anopheles funestus, UniProt B5AII7, V109I); experiment: as above; assay type: biochemical
Experimental: as §1, §2

CYP6M2 = tested on: CYP6M2; design: method as in ref [5] (S1 Text); conditions: cited from earlier work
MALCYP6P9a = MALCYP6P9a (Anopheles funestus, UniProt B5AII6); experiment: Pyrethroid depletion (metabolism) assay with recombinant enzyme; assay type: biochemical; conditions: 20μM insecticide, 1 hour, vs -NADPH
Experimental: as §7

UGANCYP6P9a = UGANCYP6P9a (Anopheles funestus, UniProt B5AII6); experiment: as above; assay type: biochemical; conditions: 20μM insecticide, 1 hour, vs -NADPH
Experimental: as §7

[1] = target: wild type recombinant MALCYP6P9b (wrMALCYP6P9b) (Anopheles funestus, UniProt B5AII7)
Experimental: as §1, §2

[2] = tested on: Asp^335Glu mutant of MALCYP6P9b; conditions: 20μM insecticide
Experimental: (§3) To establish whether allelic variation in CYP6P9a and CYP6P9b impact their metabolic activities toward insecticides, pyrethroids were screened with the recombinant enzymes from these genes. […] Membrane expressing recombinant CYP6P9a/-b and AgCPR, and reconstituted cytochrome b5 were added to the side of the tube and pre-incubated for 5 minutes at 30°C, with shaking at 1,200 rpm to activate the membrane. 20μM of test insecticide was then added into the final volume of 0.2ml (~2.5% v/v methanol), and reaction started by vortexing at 1,200 rpm and 30°C for 1 hour. Reactions were quenched with 0.1ml ice-cold methanol and incubated for 5 more minutes. Tubes were then centrifuged at 16,000 rpm and 4°C for 15 minutes, and 150μl of supernatant transferred into HPLC vials for analysis. Reactions were carried out in triplicates with experimental samples (+NADPH) and negative controls (-NADPH). 100μl of sample was loaded onto an isocratic mobile phase (90:10 v/v methanol to water) with a flow rate of 1ml/min, monitoring wavelength of 226nm and peaks separated with a 250mm C18 column (Acclaim 120, Dionex) on Agilent 1260 Infinity at 23°C.
(§4) In addition, fluorescent probes were also screened to establish differences in the O-dealkylation activity of the mutants compared with the wild type enzyme. All in vitro and kinetic analyses were conducted as described above. […]

[3] = tested on: Val^109Ile mutant of MALCYP6P9b; conditions: 20μM insecticide
Experimental: as §3, §4

FANGCYP6P9b [4] = target: T1, FANGCYP6P9b (Anopheles funestus, UniProt A0A0S1RZ61); experiment: Pyrethroid depletion (metabolism) assay with recombinant enzyme; assay type: biochemical; conditions: 20μM insecticide, 1 hour, vs -NADPH
Experimental: (§8) To establish whether allelic variation in CYP6P9a and CYP6P9b impact their metabolic activities toward insecticides, pyrethroids were screened with the recombinant enzymes from these genes. […] Membrane expressing recombinant CYP6P9a/-b and AgCPR, and reconstituted cytochrome b5 were added to the side of the tube and pre-incubated for 5 minutes at 30°C, with shaking at 1,200 rpm to activate the membrane. 20μM of test insecticide was then added into the final volume of 0.2ml (~2.5% v/v methanol), and reaction started by vortexing at 1,200 rpm and 30°C for 1 hour. Reactions were quenched with 0.1ml ice-cold methanol and incubated for 5 more minutes. Tubes were then centrifuged at 16,000 rpm and 4°C for 15 minutes, and 150μl of supernatant transferred into HPLC vials for analysis. Reactions were carried out in triplicates with experimental samples (+NADPH) and negative controls (-NADPH). 100μl of sample was loaded onto an isocratic mobile phase (90:10 v/v methanol to water) with a flow rate of 1ml/min, monitoring wavelength of 226nm and peaks separated with a 250mm C18 column (Acclaim 120, Dionex) on Agilent 1260 Infinity at 23°C. Enzyme activity was calculated as percentage depletion (the difference in the amount of insecticide(s) remaining in the +NADPH tubes compared with the–NADPH) and a t-test used for statistical analysis.

FANGCYP6P9a = FANGCYP6P9a (Anopheles funestus, UniProt K7Z0P3)
Experimental: as §1

FANGCYP6P9b [5] = target: T1, FANGCYP6P9b
Experimental: as §1

BENCYP6P9a = BENCYP6P9a (Anopheles funestus, UniProt A0A0S1RZ75); experiment: Pyrethroid depletion (metabolism) assay with recombinant enzyme; assay type: biochemical; conditions: 20μM insecticide, 1 hour, vs -NADPH
Experimental: as §7

[6] = tested on: transgenic flies over-expressing FANGCYP6P9a; conditions: 2% permethrin paper
Experimental: (§5) Primers used for this PCR are given in S8 Table. PCR conditions, cloning techniques, construction of transgenic flies and expression of candidate genes was conducted as described in previous studies, with more details provided in S1 Text. For control group, flies with the same background as the UAS transgenic lines but devoid of the UAS construct with the candidate gene were crossed with the driver Actin5C-GAL4 line to generate Actin5C-GAL4-null flies.
(§6) These papers were then rolled and introduced into 45 cc plastic vials. The vials were then plugged with cotton wool soaked in 5% sucrose. 20–25 (2–4 days old, post-eclosion F1 females) were selected for the bioassays and introduced into the vials. Mortality plus knockdown was scored after 1 hr, 2 hrs, 3 hrs, 6 hrs, 12 hrs and 24 hrs post-exposure to the discriminating dose of the insecticides.

[7] = tested on: transgenic flies over-expressing MALCYP6P9b; conditions: 2% permethrin paper
Experimental: as §5, §6

[8] = tested on: transgenic flies over-expressing FANGCYP6P9b; conditions: 2% permethrin paper
Experimental: as §5, §6

[9] = tested on: transgenic flies over-expressing MALCYP6P9a; conditions: 2% permethrin paper
Experimental: as §5, §6

BENCYP6P9b = BENCYP6P9b (Anopheles funestus, UniProt A0A0S1S7Y0); experiment: Pyrethroid depletion (metabolism) assay with recombinant enzyme; assay type: biochemical; conditions: 20μM insecticide, 1 hour, vs -NADPH
Experimental: as §8

In the case of `CC1(C)C(C=C(Cl)Cl)C1C(=O)OCc1cccc(Oc2ccccc2)c1` (stereo not shown) [permethrin], the Percentage depletion (UGANCYP6P9b) is reported as 88.58±3.48 %, the Percentage depletion (MALCYP6P9b) is reported as “more than 90%” and the Percentage depletion (MALCYP6P9b; listed as Permethrin) is reported as 91.6±2.5 %. The Km (Asp^335Glu_CYP6P9b) was 5.19 ± 1.89 µM, the Kcat (Asp^335Glu_CYP6P9b; Asp^335Glu_CYP6P9b, mean ± S.E.M.) was 0.98±0.12*** min^-1 and the “Kcat of wrMALCYP6P9b, fold of mutant” value (Asp^335Glu_CYP6P9b; wrMALCYP6P9b vs Asp^335Glu) was 8 fold. For the same compound, the “catalytic efficiency of wrMALCYP6P9b, fold of mutant” value (Asp^335Glu_CYP6P9b; wrMALCYP6P9b vs Asp^335Glu) was 4 fold, the Km (Pro^401Ala_CYP6P9b) was 15.4 ± 6.5 µM and the Kcat (Pro^401Ala_CYP6P9b; Pro^401Ala_CYP6P9b, mean ± S.E.M.) was 4.21±0.96* min^-1. The “catalytic efficiency of wrMALCYP6P9b, fold of mutant” value (Pro^401Ala_CYP6P9b; wrMALCYP6P9b vs Pro^401Ala) was 3 fold, the Km (Asn^384Ser_CYP6P9b) was 17.9 ± 0.87 µM and the “Km of mutant, fold of Asp^335Glu mutant” value (Asn^384Ser_CYP6P9b) was 4 fold. The “Km of mutant, fold of wrMALCYP6P9b” value (Asn^384Ser_CYP6P9b) was 2 fold, the Kcat (Asn^384Ser_CYP6P9b; Asn^384Ser_CYP6P9b, mean ± S.E.M.) was 0.87±0.08*** min^-1 and the “Kcat of wrMALCYP6P9b, fold of mutant” value (Asn^384Ser_CYP6P9b; wrMALCYP6P9b vs Asn^384Ser) was 9 fold. For the same compound, the “catalytic efficiency of wrMALCYP6P9b, fold of mutant” value (Asn^384Ser_CYP6P9b; wrMALCYP6P9b vs Asn^384Ser) was 20 fold, the Km (Val^109Ile_CYP6P9b) was 20.5 ± 1.35 µM and the “Km of mutant, fold of Asp^335Glu mutant” value (Val^109Ile_CYP6P9b) was 4 fold. For the same compound, the “Km of mutant, fold of wrMALCYP6P9b” value (Val^109Ile_CYP6P9b) was 2 fold, the Kcat (Val^109Ile_CYP6P9b; Val^109Ile_CYP6P9b, mean ± S.E.M.) was 1.35±0.57** min^-1 and the “Kcat of wrMALCYP6P9b, fold of mutant” value (Val^109Ile_CYP6P9b; wrMALCYP6P9b vs Val^109Ile) was 6 fold. The “catalytic efficiency of wrMALCYP6P9b, fold of mutant” value (Val^109Ile_CYP6P9b; wrMALCYP6P9b vs Val^109Ile) was 13 fold, the Km (CYP6M2; An. gambiae CYP6M2 ref [5] (S1 Text)) was 12 µM and the catalytic efficiency (CYP6M2; Anopheles gambiae CYP6M2 ref [5] (S1 Text)) was ~ 0.5 min^-1µM^-1. The Percentage depletion (MALCYP6P9a) was 65.38±1.5 %, the Percentage depletion (UGANCYP6P9a) was 60.71±0.92 % and the Kcat [1] was 0.1317 ± 0.0138 s⁻¹. For the same compound, the Km [1] was 10.3 ± 2.38 µM, the “fold less depletion than wrMALCYP6P9b” value [2] was 2.15 fold and the “fold less depletion than wrMALCYP6P9b” value [3] was 2 fold. For the same compound, the Percentage depletion (FANGCYP6P9b [4]) was 13.7±4.23%, the Kcat (FANGCYP6P9a) was 0.0825 ± 0.032 s⁻¹ and the Kcat (FANGCYP6P9b [5]) was 0.075 ± 0.0225 s⁻¹. The Km (FANGCYP6P9b [5]) was 20.5 ± 8.31 µM, the Percentage depletion (BENCYP6P9a) was 66.42±2.23 % and the mortality ([6]; 2 hrs) was 30%. The mortality ([6]; 3 hrs) was ~ 60%, the mortality ([6]; 6 hrs) was ~ 70% and the mortality ([7]; 12 hrs) was < 30%. The mortality ([7]; 24 hrs) was ~ 30%, the mortality ([8]; 12 hrs) was 55% and the mortality ([8]; 24 hrs) was ~ 60%. The mortality ([9]; 2 hrs) was “less than 10%”, the mortality ([9]; 3 hrs) was < 30% and the mortality ([9]; 6 hrs) was < 45%. For the same compound, the Percentage depletion (BENCYP6P9b) was 89.63±0.63 %.
